Values quoted from earlier work as cited in patent US20220259114A1, “Microbe-Based Compositions for Restoring Soil Health and Controlling Pests” (Locus Agriculture IP Company, LLC, priority 2019, published 2022).
*1 amine or outer side, *2 acyl side, *3 side chain or, on linkers, in order; H or OH if unused. Where a SMILES comes first, the peptide text is derived from it. Bridges are numbered along the chain shown (N, C = ends). [ ]: non-standard residue; d: D form. X1 = CC(C)CCCCCCCCC[C@H](CC(=O)[*:1])O[*:2]

Experiments:
[1] = stated 'in one embodiment'; species and route not given
[2] = test system: plant pathogens including bacteria, fungi, viruses and nematodes; details: in most cases does not exceed
[3] = reduced from 72 mN/m; concentration as low as 0.005%

Compound	toxic dose [1]	effective SLP concentration for biopesticide activity, in most cases [2] [mg/L]	surface tension of water after reduction [3] [mN/m]
sophorolipid [SLP]	> 375 mg/kg of body weight	≤ 3	
CC(C)CCCCCCCCC[C@@H]1CC(=O)N[C@@H](CCC(=O)O)C(=O)N[C@@H](CC(C)C)C(=O)N[C@H](CC(C)C)C(=O)N[C@@H](C(C)C)C(=O)N[C@@H](CC(=O)O)C(=O)N[C@H](CC(C)C)C(=O)N[C@@H](CC(C)C)C(=O)O1 [Surfactin, surfactin] (EL[dL]VD[dL]L; linker N-C via X1)			27
